The values below come from patent US20260125346A1, “Isoquinolinone Derivatives and 4H-Quinolizinone Derivatives and Pharmaceutical Compositions Thereof for the Treatment of Disease” (BeOne Medicines I GmbH, priority 2023, published 2026).

Some results are limits rather than exact numbers.

Test [1] addresses PI3Kα (p110[H1047R]/p85) kinase (Homo sapiens, UniProt P42336, H1047R). As to the kind of experiment: PI3Kα (p110[H1047R]/p85) kinase ADP-Glo Assay. The format is biochemical. Conditions: 25 uM ATP; for selectivity: WT/H1047R: ADP-Glo Assay IC50 ratio. Summed up: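 PI3Kα H1047R/p85 pre-incubated 30 min at room temperature with PI(4,5)P2:PS substrate ([…]) and compound ([…]) in HEPES pH 7.5 buffer with MgCl2; ATP ([…]) then added for 120 min. ADP quantified by ADP-Glo luminescence; IC50 from four-parameter logistic fit.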
A general note: ADP-Glo first removes unused ATP, then detects ADP through luciferase.

Test [2] relates to PI3Kα H1047R mutated cell line T-47D. As to the kind of experiment: Phospho-AKT (Ser473) Inhibition Assay (HTRF), T-47D. The format is cell-based. The settings on record: for IC50: Homo sapiens, T47D, T-47D, 1 hour treatment, read-out: p-AKT Inhibition assay (S473) IC50 T-47D; for Selectivity: SK-BR-3/T-47D (p-AKT): p-AKT (S473) IC50 ratio. Summed up: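 Cells seeded overnight in insulin-supplemented MEM, then treated 1 h with 11-point 1:3 compound dilutions (10 μM to 0.1 nM final, 0.1% DMSO). Lysates assayed for phospho-AKT Ser473 by HTRF; IC50 from 4-parameter logistic fit, normalised to DMSO (max) and 10 μM GDC0077 (min).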

Sequence of PI3Kα (p110[H1047R]/p85) kinase (P42336 whole entry H1047R): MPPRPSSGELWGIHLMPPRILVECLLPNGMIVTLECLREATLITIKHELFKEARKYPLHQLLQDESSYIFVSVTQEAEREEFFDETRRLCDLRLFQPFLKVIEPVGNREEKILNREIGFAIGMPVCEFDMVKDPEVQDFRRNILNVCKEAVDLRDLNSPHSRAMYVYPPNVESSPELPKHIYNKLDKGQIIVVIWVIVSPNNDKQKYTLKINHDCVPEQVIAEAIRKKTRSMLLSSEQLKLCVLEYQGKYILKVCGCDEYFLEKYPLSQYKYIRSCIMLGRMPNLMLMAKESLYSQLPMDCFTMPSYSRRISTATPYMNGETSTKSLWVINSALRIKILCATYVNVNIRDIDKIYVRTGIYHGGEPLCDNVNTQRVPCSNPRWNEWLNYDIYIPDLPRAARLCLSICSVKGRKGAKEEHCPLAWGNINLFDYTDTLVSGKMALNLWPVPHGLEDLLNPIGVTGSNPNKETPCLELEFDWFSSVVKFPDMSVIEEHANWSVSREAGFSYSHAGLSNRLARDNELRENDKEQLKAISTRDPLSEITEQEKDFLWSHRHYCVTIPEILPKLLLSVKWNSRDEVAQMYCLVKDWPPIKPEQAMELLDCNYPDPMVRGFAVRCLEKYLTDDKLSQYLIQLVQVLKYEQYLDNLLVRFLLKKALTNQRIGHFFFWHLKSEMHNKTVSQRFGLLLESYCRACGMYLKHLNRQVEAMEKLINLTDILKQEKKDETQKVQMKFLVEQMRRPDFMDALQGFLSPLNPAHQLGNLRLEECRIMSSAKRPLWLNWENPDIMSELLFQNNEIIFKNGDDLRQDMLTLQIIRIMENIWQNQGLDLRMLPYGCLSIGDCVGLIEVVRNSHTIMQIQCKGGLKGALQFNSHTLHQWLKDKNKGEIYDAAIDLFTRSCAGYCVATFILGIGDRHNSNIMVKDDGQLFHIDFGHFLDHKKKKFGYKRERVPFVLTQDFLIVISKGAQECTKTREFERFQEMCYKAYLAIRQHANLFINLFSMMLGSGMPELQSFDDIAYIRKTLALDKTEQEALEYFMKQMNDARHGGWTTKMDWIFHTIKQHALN
Sequence of PI3Kα (p110[H1047R]/p85) kinase (P27986 whole entry partner): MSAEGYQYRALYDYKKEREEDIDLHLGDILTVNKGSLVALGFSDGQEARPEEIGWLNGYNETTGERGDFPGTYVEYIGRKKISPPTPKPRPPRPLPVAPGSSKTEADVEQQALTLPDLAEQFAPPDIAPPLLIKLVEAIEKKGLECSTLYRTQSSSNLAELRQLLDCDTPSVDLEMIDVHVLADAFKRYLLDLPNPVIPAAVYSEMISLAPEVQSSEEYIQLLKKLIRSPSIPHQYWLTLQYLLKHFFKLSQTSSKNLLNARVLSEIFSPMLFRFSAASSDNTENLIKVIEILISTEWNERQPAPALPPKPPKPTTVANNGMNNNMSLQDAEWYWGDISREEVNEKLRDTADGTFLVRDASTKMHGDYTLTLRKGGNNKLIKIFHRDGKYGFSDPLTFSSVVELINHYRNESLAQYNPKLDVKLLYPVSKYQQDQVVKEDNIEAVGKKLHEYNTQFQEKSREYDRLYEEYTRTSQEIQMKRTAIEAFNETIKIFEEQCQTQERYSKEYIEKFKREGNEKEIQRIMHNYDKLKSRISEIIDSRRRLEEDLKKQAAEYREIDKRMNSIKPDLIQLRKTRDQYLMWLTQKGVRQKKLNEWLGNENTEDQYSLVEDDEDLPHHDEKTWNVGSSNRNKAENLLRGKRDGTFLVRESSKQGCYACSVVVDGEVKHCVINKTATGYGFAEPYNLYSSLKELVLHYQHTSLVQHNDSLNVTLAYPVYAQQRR

As to `Cc1cc(C(C)Nc2ccccc2C(=O)O)c2cc(-c3ccc4nc(C)sc4c3)n(C)c(=O)c2c1` (stereo not drawn) [Example 18, 2-((1-(2,7-dimethyl-3-(2-methylbenzo[d]thiazol-6-yl)-1-oxo-1,2-dihydroisoquinolin-5-yl)ethyl)amino)benzoic acid], in test [1], half-maximal inhibition (IC50) was put at 272 nM and the “selectivity: WT/H1047R” value was determined as 16.1. Further, in test [2], the IC50 is 85.1 nM and the “Selectivity: SK-BR-3/T-47D (p-AKT)” value is reported as 27.3.

As for `Cc1cc(C(C)Nc2ccccc2C(=O)O)c2cc(-c3ccc4nn(C)cc4c3)n(C)c(=O)c2c1` (stereo not drawn) [Example 19, 2-((1-(2,7-dimethyl-3-(2-methyl-2H-indazol-5-yl)-1-oxo-1,2-dihydroisoquinolin-5-yl)ethyl)amino)benzoic acid], in test [1], 311 nM corresponded to half-maximal inhibition (IC50) and the “selectivity: WT/H1047R” value is recorded as 21.1. In test [2], the half-inhibitory concentration (IC50) came out at 166 nM and the “Selectivity: SK-BR-3/T-47D (p-AKT)” value was found to be 13.8.

As to `CC(Nc1ccccc1C(=O)O)c1cccc2c(=O)n(C)c(-c3ccccc3)cc12` (stereo not drawn) [Example 20, 2-((1-(2-methyl-1-oxo-3-phenyl-1,2-dihydroisoquinolin-5-yl)ethyl)amino)benzoic acid], in test [1], the midpoint of inhibition, the IC50, lay at 93 nM and the “selectivity: WT/H1047R” value turned out to be 108.4. In addition, in test [2], the IC50 is 24.1 nM and the “Selectivity: SK-BR-3/T-47D (p-AKT)” value is recorded as more than 416.

For `CC(Nc1ccccc1C(=O)O)c1cccc2c(=O)n(C)c(C#Cc3ccccc3)cc12` (stereo not drawn) [Example 21, 2-((1-(2-methyl-1-oxo-3-(phenylethynyl)-1,2-dihydroisoquinolin-5-yl)ethyl)amino)benzoic acid], in test [1], inhibition was half-maximal at 121 nM (IC50) and the “selectivity: WT/H1047R” value was determined as 11.1. In addition, in test [2], the concentration for half-maximal inhibition (IC50) is 35.5 nM and the “Selectivity: SK-BR-3/T-47D (p-AKT)” value was 165.3.

With `Cc1cc(C(C)Nc2ccccc2C(=O)O)c2cc(-c3cccc4cn(C)nc34)n(C)c(=O)c2c1` (stereo not drawn) [Example 22, 2-((1-(2,7-dimethyl-3-(2-methyl-2H-indazol-7-yl)-1-oxo-1,2-dihydroisoquinolin-5-yl)ethyl)amino)benzoic acid], in test [1], the midpoint of inhibition, the IC50, lay at 1730 nM and the “selectivity: WT/H1047R” value came out at 30.3. Also, in test [2], the IC50 was 1750 nM and the “Selectivity: SK-BR-3/T-47D (p-AKT)” value is given as more than 5.7.

Turning to `Cc1cc(C(C)Nc2ccccc2C(=O)O)c2cc(-c3ccc(-c4cnn(C)c4)cc3)n(C)c(=O)c2c1` (stereo not drawn) [Example 23, 2-((1-(2,7-dimethyl-3-(4-(1-methyl-1H-pyrazol-4-yl)phenyl)-1-oxo-1,2-dihydroisoquinolin-5-yl)ethyl)amino)benzoic acid], in test [1], the midpoint of inhibition, the IC50, lay at 223 nM and the “selectivity: WT/H1047R” value is recorded as 9.1. In test [2], the half-inhibitory concentration (IC50) turned out to be 103 nM and the “Selectivity: SK-BR-3/T-47D (p-AKT)” value was 16.6.

Consider `Cc1cc(C(C)Nc2ccccc2C(=O)O)c2cc(NC(=O)c3ccccc3)n(C)c(=O)c2c1` (stereo not drawn) [Example 24, 2-((1-(3-benzamido-2,7-dimethyl-1-oxo-1,2-dihydroisoquinolin-5-yl)ethyl)amino)benzoic acid], for which, in test [1], the IC50 was 1030 nM and the “selectivity: WT/H1047R” value is recorded as 38.2. For the same molecule, in test [2], the IC50 came to 3140 nM and the “Selectivity: SK-BR-3/T-47D (p-AKT)” value is recorded as more than 3.1.

As for `CC(Nc1ccccc1C(=O)O)c1cccn2c(=O)cc(-c3ccccc3)cc12` (stereo not drawn) [Example 25, 2-((1-(4-oxo-2-phenyl-4H-quinolizin-9-yl)ethyl)amino)benzoic acid], in test [1], the half-inhibitory concentration (IC50) is 229 nM and the “selectivity: WT/H1047R” value came out at 104.0. In addition, in test [2], the IC50 is 299 nM and the “Selectivity: SK-BR-3/T-47D (p-AKT)” value is on record as more than 33.4.

Turning to `Cc1cc([C@@H](C)Nc2ccccc2C(=O)O)c2cc(-c3ccccc3)n(C)c(=O)c2c1` [Example 30, (R)-2-((1-(2,7-dimethyl-1-oxo-3-phenyl-1,2-dihydroisoquinolin-5-yl)ethyl)amino)benzoic acid], in test [1], half-maximal inhibition (IC50) required 104 nM and the “selectivity: WT/H1047R” value was determined as 24.1. Moreover, in test [2], the IC50 was 22 nM and the “Selectivity: SK-BR-3/T-47D (p-AKT)” value was found to be 113.7.

What is called IC50 is the concentration at which inhibition is half-maximal.
